Tests used:
Type in all cases: in vivo
Blattalla germanica = experiment: Test Example 5: filter paper with sucrose bait, Blattalla germanica; conditions: 144 h; 500 ppm active ingredient, 0.7 ml on filter paper; 2 male imagoes of Blattalla germanica; after 6 days; read-out: pest death rate
Description: A formulation of any one of the present compounds (4), (5), (6), (8), (12), (15), (16), (18), (22), (23) and (24) obtained in Formulation Example 5 was diluted with water to prepare a test solution having 500 ppm of the active ingredient.
(§1) A filter paper having a diameter of 5.5 cm was spread on the bottom of a polyethylene cup having a diameter of 5.5 cm and 0.7 ml of the test solution was added dropwise onto the filter paper. As a bait, 30 mg of sucrose was uniformly placed on the filter paper. Into the polyethylene cup, 2 male imagoes of Blattalla germanica were released and the cup was sealed with a lid. After 6 days, the number of surviving or dead Blattalla germanica was counted and the death rate of the pest was calculated.

Culex pipiens pallens = experiment: Test Example 6: Culex pipiens pallens larvae in treated water; conditions: 24 h, read-out: pest death rate
Description: A formulation of any one of the present compounds (4), (5), (6), (7), (8), (9), (11), (12), (15), (16), (18), (19), (20), (21), (22), and (26) obtained in Formulation Example 5 was diluted with water to prepare a test solution having 500 ppm of the active ingredient.
To 100 mL of ion-exchanged water, 0.7 ml of the test solution was added (active ingredient concentration: 3.5 ppm). Into the solution, 20 last-instar larvae of Culex pipiens pallens were released. After 1 day, the number of surviving or dead Culex pipiens pallens was counted and the death rate of the pest was calculated.

Musca domestica = experiment: Test Example 4: filter paper with sucrose bait, Musca domestica; conditions: 24 h, read-out: pest death rate
Description: A formulation of any one of the present compounds (1), (4), (6), (7), (9), (10), (11), (12), (13), (15), (16), (17), (18), (19), (20), (21), (22), (24), (25) and (26) obtained in Formulation Example 5 was diluted with water to prepare a test solution having 500 ppm of the active ingredient.
as §1, with “10 female” for “2 male”, “Musca domestica” for “Blattalla germanica”, “24 hours,” for “6 days,”

SMILES: N#CC(CCC(F)(F)C(F)(F)F)S(=O)(=O)CC1CCCCO1 (single isomer, unassigned) [present compound (22), 5,5,6,6,6-pentafluoro-2-(tetrahydropyran-2-ylmethanesulfonyl)hexanenitrile]
- pest or weed control at 500 ppm (Blattalla germanica): 100%
- pest or weed control at 3.5 ppm (Culex pipiens pallens): ≥ 95%
- pest or weed control at 500 ppm (Musca domestica): ≥ 90%

SMILES: C#CCC1CCC(CSCCC(F)(F)F)O1 (single isomer, unassigned) [present compound (23), 2-(prop-2-ynyl)-5-(3,3,3-trifluoropropylthiomethyl)tetrahydrofuran]
- pest or weed control at 500 ppm (Blattalla germanica): 100%

SMILES: C#CCC1CCC(CS(=O)(=O)CCC(F)(F)F)O1 (single isomer, unassigned) [present compound (24), 2-(prop-2-ynyl)-5-(3,3,3-trifluoropropanesulfonylmethyl)tetrahydrofuran]
- pest or weed control at 500 ppm (Blattalla germanica): 100%
- pest or weed control at 500 ppm (Musca domestica): ≥ 90%

SMILES: CCOC(=O)N1CCC(C(C#N)S(=O)(=O)CCC(F)(F)F)CC1 (centres unmarked) [present compound (1), 2-[N-(ethoxycarbonyl)piperidin-4-yl]-2-(3,3,3-trifluoropropylsulfonyl)acetonitrile]
- pest or weed control at 500 ppm (Musca domestica): ≥ 90%

SMILES: N#CC(C1CCSCC1)S(=O)(=O)CCC(F)(F)F (centres unmarked) [present compound (4), 2-(tetrahydrothiopyran-4-yl)-2-(3,3,3-trifluoropropylsulfonyl)acetonitrile]
- pest or weed control at 500 ppm (Blattalla germanica): 100%
- pest or weed control at 3.5 ppm (Culex pipiens pallens): ≥ 95%
- pest or weed control at 500 ppm (Musca domestica): ≥ 90%

SMILES: N#CC(C1CC[S+]([O-])CC1)S(=O)(=O)CCC(F)(F)F (centres unmarked) [present compound (5), 2-(1-oxo-1λ^4-tetrahydrothiopyran-4-yl)-2-(3,3,3-trifluoropropylsulfonyl)acetonitrile]
- pest or weed control at 500 ppm (Blattalla germanica): 100%
- pest or weed control at 3.5 ppm (Culex pipiens pallens): ≥ 95%

SMILES: N#CC(C1CCS(=O)(=O)CC1)S(=O)(=O)CCC(F)(F)F (centres unmarked) [present compound (6), 2-(1,1-dioxo-1λ^4-tetrahydrothiopyran-4-yl)-2-(3,3,3-trifluoropropylsulfonyl)acetonitrile]
- pest or weed control at 500 ppm (Blattalla germanica): 100%
- pest or weed control at 3.5 ppm (Culex pipiens pallens): ≥ 95%
- pest or weed control at 500 ppm (Musca domestica): ≥ 90%

SMILES: N#CC(C1CCSC1)S(=O)(=O)CCC(F)(F)F (centres unmarked) [present compound (7), 2-(tetrahydrothiophen-3-yl)-2-(3,3,3-trifluoropropylsulfonyl)acetonitrile]
- pest or weed control at 3.5 ppm (Culex pipiens pallens): ≥ 95%
- pest or weed control at 500 ppm (Musca domestica): ≥ 90%

SMILES: N#CC(C1CC[S+]([O-])C1)S(=O)(=O)CCC(F)(F)F (centres unmarked) [present compound (8), 2-(1-oxo-1λ^4-tetrahydrothiophen-3-yl)-2-(3,3,3-trifluoropropylsulfonyl)acetonitrile]
- pest or weed control at 500 ppm (Blattalla germanica): 100%
- pest or weed control at 3.5 ppm (Culex pipiens pallens): ≥ 95%

SMILES: N#CC(CC1CCCO1)S(=O)(=O)CCC(F)(F)F (centres unmarked) [present compound (10), 3-(2-tetrahydrofuran-2-yl)-2-(3,3,3-trifluoropropylsulfonyl)propionitrile]
- pest or weed control at 500 ppm (Musca domestica): ≥ 90%

SMILES: N#CC(CC1CCOC1)S(=O)(=O)CCC(F)(F)F (centres unmarked) [present compound (11), 3-(tetrahydrofuran-3-yl)-2-(3,3,3-trifluoropropylsulfonyl)propionitrile]
- pest or weed control at 3.5 ppm (Culex pipiens pallens): ≥ 95%
- pest or weed control at 500 ppm (Musca domestica): ≥ 90%

SMILES: N#CC(CC1CCCCO1)S(=O)(=O)CCC(F)(F)F (centres unmarked) [present compound (12), 3-(2-tetrahydropyran-2-yl)-2-(3,3,3-trifluoropropylsulfonyl)propionitrile]
- pest or weed control at 500 ppm (Blattalla germanica): 100%
- pest or weed control at 3.5 ppm (Culex pipiens pallens): ≥ 95%
- pest or weed control at 500 ppm (Musca domestica): ≥ 90%

SMILES: N#CC(CC1CCC(=O)O1)S(=O)(=O)CCC(F)(F)F (centres unmarked) [present compound (13), 3-(2-oxotetrahydrofuran-5-yl)-2-(3,3,3-trifluoropropylsulfonyl)propionitrile]
- pest or weed control at 500 ppm (Musca domestica): ≥ 90%

SMILES: COC(=O)N1CCC(C(C#N)S(=O)(=O)CCC(F)(F)C(F)(F)F)CC1 (centres unmarked) [present compound (15), 2-[N-(methoxycarbonyl)piperidin-4-yl]-2-(3,3,4,4,4-pentafluorobutylsulfonyl)acetonitrile]
- pest or weed control at 500 ppm (Blattalla germanica): 100%
- pest or weed control at 3.5 ppm (Culex pipiens pallens): ≥ 95%
- pest or weed control at 500 ppm (Musca domestica): ≥ 90%

SMILES: N#CC(C1CCSCC1)S(=O)(=O)CCC(F)(F)C(F)(F)F (centres unmarked) [present compound (16), 2-(tetrahydrothiopyran-4-yl)-2-(3,3,4,4,4-pentafluorobutylsulfonyl)acetonitrile]
- pest or weed control at 500 ppm (Blattalla germanica): 100%
- pest or weed control at 3.5 ppm (Culex pipiens pallens): ≥ 95%
- pest or weed control at 500 ppm (Musca domestica): ≥ 90%

SMILES: N#CC(CCC(F)(F)F)S(=O)(=O)CC1CCCO1 (centres unmarked) [present compound (17), 5,5,5-trifluoro-2-(tetrahydrofuran-2-ylmethanesulfonyl)pentanenitrile]
- pest or weed control at 500 ppm (Musca domestica): ≥ 90%

SMILES: N#CC(CCC(F)(F)C(F)(F)F)S(=O)(=O)CC1CCCO1 (centres unmarked) [present compound (18), 5,5,6,6,6-pentafluoro-2-(tetrahydrofuran-2-ylmethanesulfonyl)hexanenitrile]
- pest or weed control at 500 ppm (Blattalla germanica): 100%
- pest or weed control at 3.5 ppm (Culex pipiens pallens): ≥ 95%
- pest or weed control at 500 ppm (Musca domestica): ≥ 90%

SMILES: N#CC(CCCC(F)(F)C(F)(F)F)S(=O)(=O)CC1CCCO1 (centres unmarked) [present compound (19), 6,6,7,7,7-pentafluoro-2-(tetrahydrofuran-2-ylmethanesulfonyl)heptanenitrile]
- pest or weed control at 3.5 ppm (Culex pipiens pallens): ≥ 95%
- pest or weed control at 500 ppm (Musca domestica): ≥ 90%

SMILES: N#CC(CCC(F)(F)C(F)(F)F)S(=O)(=O)CCC1OCCO1 (centres unmarked) [present compound (21), 5,5,6,6,6,-pentafluoro-2-[2-(1,3-dioxolan-2-yl)ethanesulfonyl]pentanenitrile]
- pest or weed control at 3.5 ppm (Culex pipiens pallens): ≥ 95%
- pest or weed control at 500 ppm (Musca domestica): ≥ 90%

SMILES: COC(=O)C(CCC(F)(F)C(F)(F)F)S(=O)(=O)CC1CCCO1 (centres unmarked) [present compound (25), methyl 5,5,6,6,6-pentafluoro-2-(tetrahydrofuran-2-ylmethanesulfonyl)hexanoate]
- pest or weed control at 500 ppm (Musca domestica): ≥ 90%

From patent publication US8513162B2, “Halogen-containing organosulfur compound and use thereof” (Sumitomo Chemical Company, Limited, priority 2008, dated 2013)
